Where two headings read alike, the source gives them in different places.
Columns and labels:
[1] = molecular target: T1, EPAC1 (Homo sapiens (Human), UniProt O95398); experiment: biochemical
[2] = molecular target: T2, EPAC2 (Mus musculus (Mouse), UniProt Q9EQZ6); experiment: biochemical; conditions: Rap1b-bGDP EPAC2 IC50, apparent IC50, EPAC2 GEF activity, 20 μM cAMP
Description: (§3) In Vitro Evaluation of EPAC2 Inhibition.
(§4) In vitro EPAC GEF activity was acquired as previously described (Zhu et al., Sci. Rep. (2015) 5:9344). Briefly, the assay was performed using 500 nM Rap1b-BODIPY-GDP and 200 nM EPAC proteins in buffer containing 50 mM Tris-HCl pH 7.5, 50 mM NaCl, 5 mM MgCl2, 1 mM DTT, 50 mM GDP and the indicated concentrations of test compounds at room temperature using half-area 96-well plates (Corning Costar 3915). The exchange reaction was monitored using a Spectramax M2 Plate Reader (Molecular Devices) with the excitation/emission wavelengths set at 485/515 nm. The reaction rate constant (kobs) was determined by globally fitting the experimental data to a single exponential equation.

[3] = molecular target: T2, EPAC2; conditions: for Relative GEF activity, EPAC2-mediated Rap1b-bGDP exchange: in the presence of 20 μM cAMP, figure; for IC50: read-out: Rap1b-bGDP EPAC2 IC50, apparent IC50, EPAC2 GEF activity, 20 μM cAMP
Description: as §3, §4

[4] = molecular target: T1, EPAC1; conditions: for IC50: read-out: Rap 1b-bGDP EPAC1 IC50
[5] = system: R. australia; conditions: 10 mg/kg IP daily, lethal dose of R. australia
Description: WT C57BL/6 mice were treated with vehicle or ESI-09 (10 mg/kg, IP) daily. Five days after the treatment, mice were challenged with lethal dose of R. australia and continued ESI-09 daily treatment.

[6] = mice, single IP injection 10 mg/kg
Description: In vivo pharmacokinetic studies were performed in four week old female C57BL6/N mice.

[7] = system: pSTAT3 Y705; conditions: brain slices, basal state and in response to leptin stimulation
Description: (§1) To explore the feasibility of increasing leptin sensitivity by targeting Epac1 using small molecules, organotypic brain slice cultures were prepared from 11-day old wild-type C57BL/6 mice. After 7 days ex vivo culture, treatment of the brain tissue with the Epac specific antagonist ESI-09 led to an enhanced pSTAT3 Y705 level both at the basal state and in response to leptin stimulation. […] These pharmacological data are in agreement with results obtained using Epac1 KO mice and further confirm that inhibition of Epac1 enhances leptin signaling in the hypothalamus. To further investigate the therapeutic potential of this small molecule, wild-type mice were with ESI-09 (50 mg/kg) or vehicle (corn oil) by oral gavage for 3 weeks.

[8] = system: leptin; conditions: wild-type mice, 50 mg/kg oral gavage for 3 weeks, relative to vehicle
Description: as §1

[9] = system: R. australia; conditions: HUVEC cells, vs vehicle
[10] = system: OVA-specific IgG1 antibodies; conditions: mouse, in vivo
[11] = molecular target: T1, EPAC1; conditions: read-out: IC50 in inhibiting EPAC1; reference compound, Zhu et al., Sci. Rep. (2015); cited from earlier work
[12] = molecular target: T1, EPAC1; conditions: at 100 μM
Description: (§2) Given the physiological and pathophysiological significance of EPAC proteins, developing pharmacological EPAC modulators has attracted more and more attention. Most EPAC agonists are derivatives of cAMP, while non-cyclic nucleotide ligands usually display EPAC inhibitory activities. Cheng group developed a sensitive and robust fluorescence-based high throughput (HTS) assay, (Tsalkova et al., PloS one, (2012) 7:e30441) and discovered a series of non-cyclic nucleotide EPAC inhibitors (Tsalkova et al., Proc. Natl. Acad. Sci. U.S.A., (2012) 109:18613-18).

[13] = system: EPAC2; conditions: read-out: IC50 against EPAC2
Description: as §2

[14] = Rap 1b-bGDP EPAC1 IC50, apparent IC50, EPAC1 GEF activity, 20 μM cAMP
[15] = apparent IC50, EPAC1 GEF activity, 20 μM cAMP

| Structure (SMILES) | IC50 ([1]; Rap 1b-bGDP EPAC1 IC50) [µM] | IC50 [1, 14] [µM] | IC50 [2] [µM] | also measured |
| --- | --- | --- | --- | --- |
| CC(C)(C)c1ccc(-c2cc(C(=O)C(C#N)=NNc3cccc(Cl)c3)no2)cc1 [Compound 7, N-(3-Chlorophenyl)-2-(5-(4-(tert-butyl)phenyl)isoxazol-3-yl)-2-oxoacetohydrazonoyl cyanide] | 8.6 |  |  |  |
| CC(C)(C)c1ccc(-c2cc(C(=O)C(C#N)=NNc3ccc(C(F)(F)F)c(Cl)c3)no2)cc1 [Compound 9, N-(3-Chloro-4-(trifluoromethyl)phenyl)-2-oxo-2-(5-(4-(tert-butyl)phenyl)isoxazol-3-yl)acetohydrazonoyl cyanide] |  | 9 ± 3.9 |  |  |
| CC(C)(C)c1ccc(-c2cc(C(=O)C(C#N)=NNc3ccc(Cl)c(C(F)(F)F)c3)no2)cc1 [Compound 10, N-(4-Chloro-3-(trifluoromethyl)phenyl)-2-oxo-2-(5-(4-(tert-butyl)phenyl)isoxazol-3-yl)acetohydrazonoyl cyanide] |  | 7.3 | 2.2 ± 0.3 | Relative GEF activity, EPAC2-mediated Rap1b-bGDP exchange [3]: Dose-dependent inhibition; Rap 1b-bGDP EPAC1 IC50 [4, 15]: low micromolar range |
| CC(C)(C)c1ccc(-c2cc(C(=O)C(C#N)=NNc3cc(C(F)(F)F)cc(C(F)(F)F)c3)no2)cc1 [Compound 11, N-(3,5-Bis(trifluoromethyl)phenyl)-2-(5-(4-(tert-butyl)phenyl)isoxazol-3-yl)-2-oxoacetohydrazonoyl cyanide] |  | 11.9 ± 6 |  |  |
| N#CC(=NNc1cc(Cl)cc(C(F)(F)F)c1)C(=O)c1cc(-c2ccccc2)on1 [Compound 13, N′-(3-Chloro-5-(trifluoromethyl)phenyl)-2-oxo-2-(5-phenylisoxazol-3 yl)acetohydrazonoyl cyanide] | 9.5 ± 1.2 |  |  |  |
| N#CC(=NNc1cc(C(F)(F)F)cc(C(F)(F)F)c1)C(=O)c1cc(-c2ccccc2)on1 [Compound 15, N-(3,5-Bis(trifluoromethyl)phenyl)-2-oxo-2-(5-phenylisoxazol-3-yl)acetohydrazonoyl cyanide] | 7.2 ± 0.7 |  | 3.3 ± 0.8 |  |
| N#CC(NNc1ccc(C(F)(F)F)c(Cl)c1)C(=O)c1cc(-c2ccccc2)on1 (stereo not shown) [Compound 17b] |  |  |  | Rap 1b-bGDP EPAC1 IC50 [4]: low micromolar range; IC50 [4]: 5.1 ± 0.3 µM |
| N#CC(=NNc1ccc(Cl)c(C(F)(F)F)c1)C(=O)c1cc(-c2ccc(Cl)cc2)on1 [Compound 20, N-(4-Chloro-3-(trifluoromethyl)phenyl)-2-oxo-2-(5-(4-chlorophenyl)isoxazol-3-yl)acetohydrazonoyl cyanide] | 7.8 ± 2.1 |  |  |  |
| COc1ccc(-c2cc(C(=O)C(C#N)=NNc3cccc(Cl)c3)no2)cc1 [Compound 22, N-(3-Chlorophenyl)-2-(5-(4-methoxyphenyl)isoxazol-3-yl)-2-oxoacetohydrazonoyl cyanide] | 11.4 ± 2.8 |  |  | Relative GEF activity, EPAC1-mediated Rap1b-bGDP exchange [4]: Dose-dependent inhibition |
| COc1ccc(-c2cc(C(=O)C(C#N)=NNc3ccc(Cl)c(C(F)(F)F)c3)no2)cc1 [Compound 23, N-(4-Chloro-3-(trifluoromethyl)phenyl)-2-oxo-2-(5-(4-methoxyphenyl)isoxazol-3-yl)acetohydrazonoyl cyanide] |  | < 8 | 4.5 ± 1 |  |
| N#CC(=NNc1cc(Cl)cc(C(F)(F)F)c1)C(=O)c1cc(-c2ccco2)on1 [Compound 26, N-(3-Chloro-5-(trifluoromethyl)phenyl)-2-(5-(furan-2-yl)isoxazol-3-yl)-2-oxoacetohydrazonoyl cyanide] | 3.6 ± 0.2 |  | 2.2 ± 0.3 | Rap 1b-bGDP EPAC1 IC50 [4]: low micromolar range; Relative GEF activity, EPAC1-mediated Rap1b-bGDP exchange [4]: Dose-dependent inhibition |
| N#CC(=NNc1ccc(Cl)c(C(F)(F)F)c1)C(=O)c1cc(-c2ccco2)on1 [Compound 27, N-(4-Chloro-3-(trifluoromethyl)phenyl)-2-(5-(furan-2-yl)isoxazol-3-yl)-2-oxoacetohydrazonoyl cyanide] |  | 4.2 ± 0.9 | 2.3 ± 0.2 | Relative GEF activity, EPAC2-mediated Rap1b-bGDP exchange [3]: Dose-dependent inhibition |
| N#CC(=NNc1cccc(Cl)c1)C(=O)c1noc2ccccc12 [Compound 30, 2-(Benzo[d]isoxazol-3-yl)-N-(3-chlorophenyl)-2-oxoacetohydrazonoyl cyanide] | 13.2 |  |  |  |
| N#CC(=NNc1cc(Cl)cc(C(F)(F)F)c1)C(=O)c1noc2ccccc12 [Compound 31, 2-(Benzo[d]isoxazol-3-yl)-N-(3-chloro-5-(trifluoromethyl)phenyl)-2-oxoacetohydrazonoyl cyanide] |  | 4.6 ± 0.8 | 2.2 ± 0.2 |  |
| N#CC(=NNc1ccc(C(F)(F)F)c(Cl)c1)C(=O)c1noc2ccccc12 [Compound 32, 2-(Benzo[d]isoxazol-3-yl)-N-(3-chloro-4-(trifluoromethyl)phenyl)-2-oxoacetohydrazonoyl cyanide] |  | 3 ± 0.3 | 2.2 ± 0.4 | Rap 1b-bGDP EPAC1 IC50 [4, 15]: low micromolar range |
| N#CC(=NNc1ccc(Cl)c(C(F)(F)F)c1)C(=O)c1noc2ccccc12 [Compound 33, 2-(Benzo[d]isoxazol-3-yl)-N-(4-chloro-3-(trifluoromethyl)phenyl)-2-oxoacetohydrazonoyl cyanide] |  | 2.7 ± 0.3 | 1.9 | Relative GEF activity, EPAC2-mediated Rap1b-bGDP exchange [3]: Dose-dependent inhibition; Rap 1b-bGDP EPAC1 IC50 [4, 15]: low micromolar range; Relative GEF activity, EPAC1-mediated Rap1b-bGDP exchange ([4]; in the presence of 20 μM cAMP, figure): Dose-dependent inhibition |
| N#CC(=NNc1cc(F)cc(Cl)c1)C(=O)c1noc2ccccc12 [Compound 34, 2-(Benzo[d]isoxazol-3-yl)-N-(3-chloro-5-fluorophenyl)-2-oxoacetohydrazonoyl cyanide] | 18.9 ± 4.9 |  |  |  |
| N#CC(=NNc1ccc(F)c(Cl)c1)C(=O)c1noc2ccccc12 [Compound 35, 2-(Benzo[d]isoxazol-3-yl)-N-(3-chloro-4-fluorophenyl)-2-oxoacetohydrazonoyl cyanide] | 8.5 ± 3.5 |  |  |  |
| N#CC(=NNc1cc(C(F)(F)F)cc(C(F)(F)F)c1)C(=O)c1noc2ccccc12 [Compound 36, 2-(Benzo[d]isoxazol-3-yl)-N-(3,5-bis(trifluoromethyl)phenyl)-2-oxoacetohydrazonoyl cyanide] |  | 6.7 ± 0.7 |  |  |
| CC(C)(C)c1cc(C(=O)/C(C#N)=N/Nc2cccc(Cl)c2)no1 [ESI-09] |  |  |  | share of treatment group showing sign of sickness [5]: 10%; half-life [6]: 3.5 h; maximal blood level [6]: 42,520 ng/ml; time of maximal blood level [6]: 0.5 h; fold more potent on EPAC2 inhibition than on EPAC1 ([3]; EPAC2 vs EPAC1): 2.5 fold; Relative GEF activity, EPAC2-mediated Rap1b-bGDP exchange [3]: Dose-dependent inhibition; IC50 [3]: 4.4 µM; pSTAT3 Y705 level [7]: enhanced; Plasma leptin [8]: significantly reduced; number of intracellular R. australia [9]: dramatically reduced; level of serum OVA-specific IgG1 antibodies [10]: significantly higher; Relative GEF activity, EPAC1-mediated Rap1b-bGDP exchange [4]: Dose-dependent inhibition; IC50 [4]: 10.8 ± 1.6 µM; IC50 [11]: 10.8 µM |
| Cc1cc(C)c(Nc2ccc(Cl)c(C(F)(F)F)c2)c(C)c1 [MAY0132] |  |  |  | inhibition against EPAC1 [12]: no significant inhibition; IC50 [13]: 0.4 µM |
| N#C/C(=N\Nc1cc(Cl)cc(Cl)c1)C(=O)c1ccc(Cl)cc1 [ZL0491, (E)-2-(4-chlorophenyl)-N-(3,5-dichlorophenyl)-2-oxoacetohydrazonoyl cyanide] |  | > 300 |  |  |
| N#C/C(=N\Nc1cc(Cl)cc(Cl)c1)C(=O)c1cccc(Cl)c1 [ZL0546, (E)-2-(3-chlorophenyl)-N-(3,5-dichlorophenyl)-2-oxoacetohydrazonoyl cyanide] |  | > 300 |  |  |
| COc1ccc(C(=O)/C(C#N)=N/Nc2cc(Cl)cc(Cl)c2)cc1OC [ZL0631, (E)-N-(3,5-dichlorophenyl)-2-(3,4-dimethoxyphenyl)-2-oxoacetohydrazonoyl cyanide] |  | > 300 |  |  |
